In PMC7139703, “Thiopurine Derivative-Induced Fpg/Nei DNA Glycosylase Inhibition: Structural, Dynamic and Functional Insights” (International Journal of Molecular Sciences, 2020):

Biological target: T1, LlFpg/DNA complex C2 (Lactococcus lactis subsp. cremoris, UniProt P42371)
T1 construct: made in house; host or cells: E. coli BH540 (fpg defective)
T1 sequence (P42371 2-273 limits assumed): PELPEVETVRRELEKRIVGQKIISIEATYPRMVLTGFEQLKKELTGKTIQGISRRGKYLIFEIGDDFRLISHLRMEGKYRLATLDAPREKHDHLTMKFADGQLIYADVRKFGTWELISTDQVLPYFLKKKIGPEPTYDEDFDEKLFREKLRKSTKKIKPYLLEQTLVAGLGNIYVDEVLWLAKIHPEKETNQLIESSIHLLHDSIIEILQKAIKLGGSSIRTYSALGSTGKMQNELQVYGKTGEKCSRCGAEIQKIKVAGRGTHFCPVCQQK
Test: EMSA, Fpg DNA binding to 14-mer [THF:C] duplex, non-specific complex C2 (Fpg/DNA 2/1)
Details: for effect on stability of preformed complex C2 in the presence of TCEP: [1/1] molar ratio TCEP/compound (1 mM each), Figure S6; for number of TXn equivalents per one protein equivalent for 50% inhibition of DNA binding activity, C2: value in parentheses, 10 nM Fpg
Text: To complement this study, we examined the effect of TXn on the binding of Fpg to a short DNA duplex containing a tetrahydrofuran (THF), a non-cleavable AP site analog. The enzyme specifically recognizes THF and forms a stable abortive complex with DNA [18, 34, 35, 36]. […] A representative titration experiment (with and without TCEP) of the 14-mer [THF:C] Fpg formed two stable complexes with this short DNA probe that were easily observed by EMSA: a high-affinity complex C1 corresponding to the lesion recognition complex (LRC), with nanomolar affinity, and a complex C2 only observed at higher Fpg concentrations. C2 results in C1 titration by a second Fpg molecule. This finding illustrates that the crystal structure of Fpg bound to 8-oxoG-carbanucleotide-containing DNA [38] (Figure S5). The stability of each preformed complex was then examined by EMSA in the presence of 2TX or TXn. […] The enzyme inactivation mediated by 2TX through ZnF oxidation that directly affects the DNA binding properties of the enzyme is also in agreement with this last observation.
The inhibitor concentrations that induced the loss of the half-maximal binding (IC50app^B) were determined from these curves and are reported in Table 1. IC50app^B compared well with IC50app^A. As observed above for the enzyme activity, strong reducers, such as TCEP, abolished the negative effects of 2TX and TXn on Fpg/DNA complex stability and formation. These findings again indicate that inhibition by thio-compounds essentially relies on the oxidation of the Fpg ZnF (for an example, see experiment with TX19, Figure S4). […] This troubling and unexpected observation led us to evaluate this effect with the TXn small library compounds. To prevent a side effect due to a possible partial reduction by TCEP, we performed EMSA in the presence of a 6.7-fold molar excess of TCEP with respect to 2TX and TXn after complex formation (Figure 3).
Figure 3 Impact of TXn on the non-specific Fpg/DNA complex C2 stability in highly reducing conditions. EMSA was performed as described in the ‘Material & Methods’, except TCEP was added at a 2 mM final concentration in each binding assay. (a) Representative experiment at 0.3 mM 2TX and more efficient TXn; (b) Dose-response with the best TXn. Upper panel: Representative EMSA experiment with TX10. Lower panel: Dose-response curves with the indicated TXn.
The DNA binding activity was measured using EMSA [37]. Briefly, 0.1 nM of the 5′-labeled 14-mer [THF:C] (see above) was incubated with the enzyme at 4 °C for 30 min in 25 mM HEPES/NaOH (pH 7.5), 150 mM NaCl, 5% glycerol, 0.1 mg/mL BSA and 8% DMSO. The incubation mixture was then loaded onto a native 10% polyacrylamide gel (Acryl/Bis 19/1) and electrophoresed at 25 V/cm for 90 min at 4 °C. After electrophoresis, the gels were dried and exposed overnight for autoradiography using a Typhoon imager and quantified with ImageQuant software. To evaluate the inhibitor effect of 2TX/TXn on the DNA binding activity of each Fpg/Nei enzyme, we first determined the experimental conditions required to bind 50% of the DNA probes without an inhibitor in the presence of 8% DMSO (limiting enzyme concentration). Under these conditions, we obtained the half-maximal DNA binding 0.25, 7 and 5 nM of Fpg, hNeil1 and mvNei1. We used this limited enzyme concentrations to evaluate the inhibitor effect of 2TX/TXn on the enzyme DNA binding activity. This effect was determined by the addition of the thio-compound in the pre-equilibrium mixture of the enzyme and DNA probe (30 min) and incubated for an additional 30 min at 4 °C. For the best inhibitors of Fpg, a dose-response curve was established from at least three independent experiments and the IC50 was determined (IC50^B, Table 1). […]
Rieux et al. Thiopurine derivative-induced Fpg/Nei DNA glycosylase inhibition:
structural, dynamic and functional insights
Figure S6. […]

Row | SMILES | effect on stability of preformed complex C2 in the presence of TCEP | number of TXn equivalents per one protein equivalent for 50% inhibition of DNA binding activity, C2
1 | O=c1[nH]c(=S)[nH]c2nc[nH]c12 [Compound 2TX, 2-thioxanthine, reference compound] | moderate effect | NA (9.7)
2 | FC(F)(F)c1nc(S)c2nc[nH]c2n1 [TX13, 2-trifluoromethyl-6-thiopurine] | strongly destabilized | NA (1.3)
3 | O=c1[nH]c2[nH]c(=S)[nH]c(=O)c2[nH]1 [TX14, 2-thio-6,8-dioxopurine] | moderate effect | NA (2.8)
4 | O=c1[nH]c(=S)[nH]c2[nH]c(=S)[nH]c12 [TX19] | moderate effect | NA (2)
5 | Nc1ncnc2[nH]c(S)nc12 [TX27] | strongly destabilized | NA (4)
